Laboratory results reported in publication PMC12472947 (Pharmaceuticals, 2025).
“Also recorded” adds a separate entry of the source. Where two headings read alike, the source gives them in different places.

Assays:
[1] = molecular target: electric eel AChE [EeAChE] (Electrophorus electricus, UniProt O42275); assay: biochemical; type: biochemical; details: for IC50: Electric eel AChE, Ellman method, read-out: IC50(nM) ± SD AChE (EeAChE); for SI: Selectivity Index = EqBChE IC50/EeAChE IC50
Protocol: (§1) The anticholinesterase activity was determined using Ellman’s method, adapted as follows. […] Subsequently, 60 μL of 5,5′-dithiobis(2-nitrobenzoic acid) (DTNB, 1.1 mM) and 30 μL of enzyme solution (electric eel AChE [EeAChE], human AChE [hAChE], or equine serum BChE [EqBChE], 0.20 U/mL) containing 1 mg/mL bovine serum albumin (BSA) were added. […] Enzyme activity was calculated as the percentage relative to untreated controls, subtracting the blank reference. IC50 values were derived via non-linear regression analysis of dose–response curves (Figure S4) using GraphPad Prism v7.0.

[2] = molecular target: T1, equine serum BChE [EqBChE] (Equus caballus, UniProt P81908); assay: biochemical; details: Ellman method, read-out: IC50(nM) ± SD BChE (EqBChE)
T1 construct: equine serum BChE [EqBChE]; from tissue; host or cells: equine serum
T1 sequence (P81908 whole entry): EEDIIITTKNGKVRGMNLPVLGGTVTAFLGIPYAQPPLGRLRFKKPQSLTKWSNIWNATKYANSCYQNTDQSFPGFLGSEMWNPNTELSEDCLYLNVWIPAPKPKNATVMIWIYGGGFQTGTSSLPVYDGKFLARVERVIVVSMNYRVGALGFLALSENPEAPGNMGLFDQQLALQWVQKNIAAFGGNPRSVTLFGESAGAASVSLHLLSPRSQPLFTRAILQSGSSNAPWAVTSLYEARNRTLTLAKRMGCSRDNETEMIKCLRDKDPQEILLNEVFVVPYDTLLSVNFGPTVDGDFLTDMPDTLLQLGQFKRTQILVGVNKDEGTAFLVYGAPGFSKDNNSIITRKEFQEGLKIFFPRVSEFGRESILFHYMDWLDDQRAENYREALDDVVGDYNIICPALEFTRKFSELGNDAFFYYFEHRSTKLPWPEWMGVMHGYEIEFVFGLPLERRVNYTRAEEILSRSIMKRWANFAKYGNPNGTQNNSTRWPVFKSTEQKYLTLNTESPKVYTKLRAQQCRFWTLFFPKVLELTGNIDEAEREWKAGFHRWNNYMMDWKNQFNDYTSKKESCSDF
Protocol: as §1

hH3R = molecular target: T2, hH3R (Homo sapiens, UniProt Q9Y5N1); assay: H3R radioligand displacement assay ([3H]-N-α-methylhistamine); type: binding; details: 95% confidence interval in brackets; HEK-293 membranes
T2 construct: expressed in transfected cells; host or cells: HEK-293
T2 sequence (Q9Y5N1 whole entry): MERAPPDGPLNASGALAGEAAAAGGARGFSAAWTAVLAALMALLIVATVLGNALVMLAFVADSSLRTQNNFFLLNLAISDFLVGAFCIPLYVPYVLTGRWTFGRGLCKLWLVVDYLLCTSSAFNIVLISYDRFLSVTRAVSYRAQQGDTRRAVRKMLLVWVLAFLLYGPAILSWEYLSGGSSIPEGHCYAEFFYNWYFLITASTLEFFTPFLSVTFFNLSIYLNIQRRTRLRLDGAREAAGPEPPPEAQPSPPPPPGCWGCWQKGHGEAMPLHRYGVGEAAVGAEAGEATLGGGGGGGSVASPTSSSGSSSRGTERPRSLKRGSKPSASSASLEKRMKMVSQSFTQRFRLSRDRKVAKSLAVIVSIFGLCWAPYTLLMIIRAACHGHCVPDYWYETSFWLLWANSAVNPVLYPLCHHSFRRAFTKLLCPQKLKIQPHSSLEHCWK
Protocol: HEK-293 cells (human embryonic kidney cells) stably expressing hH3R were washed and harvested in PBS buffer (phosphate-buffered saline). […] The cell membrane homogenate was centrifuged (20,000× g, 20 min, 4 °C), and the resulting pellet was resuspended in binding buffer and stored at −80 °C until use.
Prior to experiments, the cell membranes were thawed, homogenized by sonication at 4 °C, and kept in ice-cold binding buffer. Crude membrane extracts (20 μg/well in a final volume of 0.2 mL binding buffer) were incubated with [^3H]-N-α-methylhistamine (2 nM; 78.3 Ci/mmol) and varying concentrations of test compounds. Assays were performed in duplicate, with compound concentrations ranging from 0.01 nM to 100 μM. Incubations proceeded for 90 min at room temperature under continuous agitation.
Bound radioligand was separated from free radioligand by filtration through GF/B filters pretreated with 0.3% (w/v) polyethyleneimine, using a cell harvester. Radioactivity was quantified by liquid scintillation counting. Data were analyzed using GraphPad Prism v8 (San Diego, CA, USA) software, employing non-linear regression analysis.

hMAO-A = molecular target: T3, hMAO-A (Homo sapiens, UniProt P21397); assay: MAO-A inhibition, fluorometric Amplex Red assay; type: biochemical; details: test concentration of 1 µM; read-out: Percentage of MAO-A inhibition ± SEM
T3 construct: purchased Sigma-Aldrich, Gillingham, UK
T3 sequence (P21397 1-527): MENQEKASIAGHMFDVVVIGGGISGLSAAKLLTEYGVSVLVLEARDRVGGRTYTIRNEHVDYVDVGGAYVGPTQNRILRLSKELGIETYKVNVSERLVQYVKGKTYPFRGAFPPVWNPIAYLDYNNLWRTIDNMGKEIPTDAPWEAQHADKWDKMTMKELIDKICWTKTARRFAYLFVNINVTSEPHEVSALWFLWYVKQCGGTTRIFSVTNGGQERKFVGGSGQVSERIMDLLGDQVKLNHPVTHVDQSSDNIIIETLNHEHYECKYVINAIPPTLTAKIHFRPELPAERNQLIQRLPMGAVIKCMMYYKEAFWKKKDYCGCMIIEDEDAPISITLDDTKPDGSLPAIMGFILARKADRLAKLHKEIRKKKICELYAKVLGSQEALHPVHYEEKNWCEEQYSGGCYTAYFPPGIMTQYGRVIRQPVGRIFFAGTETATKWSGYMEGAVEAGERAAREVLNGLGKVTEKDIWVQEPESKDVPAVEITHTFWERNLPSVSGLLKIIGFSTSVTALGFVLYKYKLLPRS
Protocol: The activity of human recombinant membrane-bound monoamine oxidase isoforms A and B (MAO-A/B) (Sigma-Aldrich, Gillingham, UK) in 50 mM potassium phosphate buffer (pH 7.5) was determined by measuring hydrogen peroxide production coupled to the fluorescent dye Amplex Red (Sigma-Aldrich, UK) at a final concentration of 50 μM, in the presence of horseradish peroxidase (HRP, 2.5 U/mL). This coupling reaction generates the fluorescent product resorufin, which was quantified at 30 °C using a fluorescence plate reader. […].
(§2) Reactions were initiated by adding the substrate and dye after a 30 min preincubation of the inhibitor with the enzyme. Data were analyzed using a three-parameter equation in GraphPad Prism 7.0 (San Diego, USA). Each reported value represents the mean of at least two independent determinations.

hMAO-B = molecular target: T4, hMAO-B (Homo sapiens, UniProt P27338); assay: biochemical; type: biochemical; details: test concentration of 1 µM; read-out: Percentage of MAO-B inhibition ± SEM
T4 construct: purchased Sigma-Aldrich, Gillingham, UK
T4 sequence (P27338 1-520): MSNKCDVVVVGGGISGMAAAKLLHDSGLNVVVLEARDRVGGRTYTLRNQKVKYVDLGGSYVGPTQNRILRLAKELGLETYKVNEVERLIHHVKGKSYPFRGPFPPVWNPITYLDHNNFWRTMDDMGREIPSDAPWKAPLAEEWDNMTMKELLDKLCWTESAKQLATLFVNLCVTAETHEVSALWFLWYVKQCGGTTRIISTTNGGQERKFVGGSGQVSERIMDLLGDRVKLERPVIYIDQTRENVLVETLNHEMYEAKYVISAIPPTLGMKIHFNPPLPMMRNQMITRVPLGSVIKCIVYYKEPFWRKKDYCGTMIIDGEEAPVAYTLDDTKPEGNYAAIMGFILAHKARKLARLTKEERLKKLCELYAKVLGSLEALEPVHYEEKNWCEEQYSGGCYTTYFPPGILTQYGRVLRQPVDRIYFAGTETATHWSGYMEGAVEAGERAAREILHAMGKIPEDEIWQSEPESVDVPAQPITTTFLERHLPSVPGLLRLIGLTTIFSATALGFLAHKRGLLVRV
Protocol: The activity of human recombinant membrane-bound monoamine oxidase isoforms A and B (MAO-A/B) (Sigma-Aldrich, Gillingham, UK) in 50 mM potassium phosphate buffer (pH 7.5) was determined by measuring hydrogen peroxide production coupled to the fluorescent dye Amplex Red (Sigma-Aldrich, UK) at a final concentration of 50 μM, in the presence of horseradish peroxidase (HRP, 2.5 U/mL). This coupling reaction generates the fluorescent product resorufin, which was quantified at 30 °C using a fluorescence plate reader.
as §2

human AChE [hAChE] = human AChE [hAChE] (Homo sapiens, UniProt P22303); assay: biochemical
Sequence of human AChE [hAChE] (P22303 32-614): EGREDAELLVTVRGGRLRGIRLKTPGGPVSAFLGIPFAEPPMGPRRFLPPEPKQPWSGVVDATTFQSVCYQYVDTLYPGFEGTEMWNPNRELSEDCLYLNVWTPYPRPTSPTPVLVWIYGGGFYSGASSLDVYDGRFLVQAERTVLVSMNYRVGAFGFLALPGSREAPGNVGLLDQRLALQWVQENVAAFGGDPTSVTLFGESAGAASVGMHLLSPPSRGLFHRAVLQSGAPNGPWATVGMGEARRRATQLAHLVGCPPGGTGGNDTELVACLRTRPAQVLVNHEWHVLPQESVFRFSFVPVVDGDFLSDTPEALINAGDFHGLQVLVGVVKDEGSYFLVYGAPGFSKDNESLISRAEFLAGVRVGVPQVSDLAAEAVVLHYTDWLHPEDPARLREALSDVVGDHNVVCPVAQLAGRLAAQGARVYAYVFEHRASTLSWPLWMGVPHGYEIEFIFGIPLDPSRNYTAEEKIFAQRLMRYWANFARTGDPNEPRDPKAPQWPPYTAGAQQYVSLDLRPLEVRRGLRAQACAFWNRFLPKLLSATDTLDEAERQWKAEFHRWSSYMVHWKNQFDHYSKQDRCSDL
Protocol: as §1

[3] = molecular target: electric eel acetylcholinesterase (EeAChE) (Electrophorus electricus, UniProt O42275); assay: Enzymatic kinetic study, EeAChE; type: biochemical; details: AChE
Sequence of electric eel acetylcholinesterase (EeAChE) (O42275 24-633): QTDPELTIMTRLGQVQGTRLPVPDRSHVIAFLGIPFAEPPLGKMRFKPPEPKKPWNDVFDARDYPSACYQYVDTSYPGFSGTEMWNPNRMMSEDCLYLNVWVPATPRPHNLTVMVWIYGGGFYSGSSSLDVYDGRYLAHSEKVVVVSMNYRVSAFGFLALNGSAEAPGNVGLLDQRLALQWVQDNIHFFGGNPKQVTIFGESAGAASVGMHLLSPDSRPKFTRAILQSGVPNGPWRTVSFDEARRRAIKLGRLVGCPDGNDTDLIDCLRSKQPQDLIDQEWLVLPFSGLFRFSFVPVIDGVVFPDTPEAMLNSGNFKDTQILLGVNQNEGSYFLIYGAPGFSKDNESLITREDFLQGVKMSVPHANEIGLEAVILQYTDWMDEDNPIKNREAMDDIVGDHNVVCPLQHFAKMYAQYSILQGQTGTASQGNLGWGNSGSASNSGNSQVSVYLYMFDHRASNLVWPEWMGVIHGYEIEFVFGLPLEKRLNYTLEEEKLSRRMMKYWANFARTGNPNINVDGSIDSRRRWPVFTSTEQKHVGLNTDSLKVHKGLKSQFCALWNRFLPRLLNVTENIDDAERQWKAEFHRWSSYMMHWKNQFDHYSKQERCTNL
Protocol: (§3) The enzymatic kinetics of cholinesterase inhibition were determined according to an adapted Ellman’s method. All of the solutions were prepared at 20 °C in 0.02 M Tris-HCl buffer (pH 7.5; ionic strength ~0.02 M), stock solutions of test compounds were prepared in DMSO:EtOH (7:3) mixture (20 mM), and the experiment was conducted in triplicate. To a flat-bottom 96-well transparent plate (path length of 0.6 cm) were added 150 μL of treatment solutions with inhibitors 1a, 1h, and 1j at two different concentrations (Table S1) distributed in eight sets of triplicate each. Eight sets of untreated triplicates were used as a negative control. Following, there were added 60 μL of 5,5′-Dithiobis(2-nitrobenzoic acid) (DTNB, Ellman’s reagent) at 1.1 mM and 30 μL of electric eel acetylcholinesterase (EeAChE) or equine serum butyrylcholinesterase (EqBuChE) at 0.20 U/mL in the presence of 1 mg/mL bovine serum albumin (BSA). […] Ki, Ki’ (competitive and noncompetitive inhibition constants, respectively), Km (Michaelis-Menten constant), and Vmax values were calculated with Graphpad Prism v7.0 using the non-linear regression models for enzyme kinetics inhibition and enzyme kinetics–substrate vs. velocity.

[4] = molecular target: T5, equine serum butyrylcholinesterase (EqBuChE) (Equus caballus, UniProt P81908); assay: Enzymatic kinetic study, EqBChE; type: biochemical; details: BChE
T5 construct: equine serum BChE [EqBChE]; from tissue; host or cells: equine serum
T5 sequence (P81908 whole entry): as the sequence (P81908 whole entry) above
Protocol: as §3

[5] = Cytotoxicity (neurotoxicity) MTT assay in SH-SY5Y; type: cell-based; details: human, SH-SY5Y neuroblastoma cells
Protocol: (§4) The immortalized human neuroblastoma cell line (SH-SY5Y–ATCC: CRL-2226; BCRJ:0223) was used to evaluate cytotoxicity. The cell line was cultured in Dulbecco’s Modified Eagle’s Medium and F12 in a 1:1 ratio (DMEM:F12; Sigma-Aldrich code 0697, Brazil) supplemented with 10% fetal bovine serum (FBS; Sigma-Aldrich code F2442, Brazil) and 1% streptomycin/penicillin (10,000 U/mL and 10,000 μg/mL, respectively; Nova Biotecnologia code BR30110-01, Cotia, SP, Brazil) and incubated at 37 °C with 5% CO2. The culture medium was replaced every 48 h, until the cells reached semi-confluence (≥70%). Cell passage was carried out with the aid of trypsin-EDTA/0.25% solution (Nova Biotecnologia, Brazil) and divided between 5 or 8 mL culture volumes depending on the respective bottles (25 or 75 cm^2) used.
(§5) The in vitro cytotoxicity assay evaluated cell viability using the [3-(4,5-dimethylthiazol-2yl)-2,5-diphenyl tetrazolium] bromide (MTT) reduction assay. Cells were seeded at an initial density of 5.0 × 10^4 cells/well in 96-well plates in a volume of 200 µL. […] In the next step, the culture medium was replaced by the sample solution previously described (Section 3.4.2). After 24 h exposure, the medium was replaced with 100 μL of MTT in phosphate-buffer saline (PBS), pH 7.4, at a concentration of 0.5 mg.mL^−1/well and the plates were incubated for an additional 3 h. Then, the MTT solution was removed, and 100 μL of DMSO was added to solubilize the formazan crystals. The cell viability was measured by absorbance at 562 nm using a Microplate Absorbance Reader (Kasuaki, Brazil). All concentrations tested were evaluated in nine replicates (n = 9). The variation in results was observed using ANOVA followed by Tukey’s test for multiple comparisons through GraphPad Prism v5^TM with a significance level of p < 0.05.

[6] = system: SH-SY5Y neuroblastoma cells; assay: Cytotoxicity (neurotoxicity) MTT assay in SH-SY5Y; type: cell-based; details: up to 50 µM
Protocol: as §4, §5

[7] = system: H2O2-damaged SH-SY5Y cells; assay: In vitro neuroprotection against H2O2 in SH-SY5Y (MTT); details: Homo sapiens, SH-SY5Y, read-out: Cell viability (% of control)
Protocol: For the neuroprotection assay, the cells previously cultured (Section 3.4.1) were seeded in 96-well plates at a density of 5 × 10^4 cells/well in a volume of 200 µL. The plates were incubated at 37 °C containing 5% CO2 for 24 h. After 24 h, the medium was replaced with the test solutions. […] Finally, the test solutions were removed, the cells were washed with PBS pH 7.4, and the H2O2 solution was added and maintained in contact with the cells for 24 h. After 24 h exposure, the neuroprotective capacity was assessed through cell viability using the MTT assay protocol previously described in Section 3.4.3 [52, 53].

[8] = molecular target: T1, equine serum BChE [EqBChE]; parameters: method as in PMID 30727776; details: Figure 1; ref [22]; read-out: EqBChE (IC50 of prototype); cited from earlier work
[9] = system: SH-SY5Y neuroblastoma cells; details: 50 μM, ref [28],[29]; cited from earlier work
[10] = competitive inhibition constant (Table S2), read-out: Ki (nM) ± SD
[11] = global non-linear regression, mixed inhibition (Table S3)

Sequence of electric eel AChE [EeAChE] (O42275 24-633): as the sequence (O42275 24-633) above

Molecule O=c1oc2cc(OCCCN3CCCCC3)ccc2cc1-c1cn(-c2ccccc2)nn1 [Compound 1b, 3-(1-Phenyl-1H-1,2,3-triazol-4-yl)-7-(3-(piperidin-1-yl)propoxy)-2H-chromen-2-one] has an IC50 [1] of 1330 ± 45 nM, an SI [1] of 3 and an IC50 [2] of 3970 ± 94 nM. It also gave a Ki (hH3R) of 0.032 µM, an inhibition at 1 µM (hMAO-A) of 6.4 ± 0.5% and an inhibition at 1 µM (hMAO-B) of 11.4 ± 1.9%.

In the case of COc1cccc(Cn2cc(-c3cc4ccc(OCCN5CCCCC5)cc4oc3=O)nn2)c1 [Compound 1j, 3-(1-(3-Methoxybenzyl)-1H-1,2,3-triazol-4-yl)-7-(2-(piperidin-1-yl)ethoxy)-2H-chromen-2-one], the IC50 [1] is reported as 4.16 ± 0.11 nM, the SI [1] is reported as 686 and the IC50 [2] is reported as 2880 ± 120 nM. The IC50 (human AChE [hAChE]; Human AChE, Ellman method, read-out: IC50(nM) ± SD AChE (hAChE) (converted)) was 12.5 nM, the SI (human AChE [hAChE]; SI = EqBChE IC50/hAChE) was 222 and the Ki [3, 10] was 0.508 ± 0.0001 nM. The Ki ([3]; corrected for tight-binding using the Morrison equation (Table S3), read-out: Ki ± SE (95% CI)) was 0.637 nM, the “α ± SE (95% CI)” value [3, 11] was 4.248 ± 1.415 and the “Vmax ± SD” value ([3]; inhibitor 0.003 μM) was 5.21 ± 0.0656 1 × 10^3 nM/min. The “Vmax ± SD” value ([3]; inhibitor 0.005 μM) was 3.90 ± 0.1517 1 × 10^3 nM/min, the Ki [4, 10] was 615 ± 0.58 nM and the Ki ([4]; free enzyme (Table S3), read-out: Ki ± SE (95% CI)) was 944 ± 200 nM. For the same molecule, the “α ± SE (95% CI)” value [4, 11] was 3.349 ± 1.984, the “Vmax ± SD” value ([4]; inhibitor 1.9 μM) was 5.97 ± 0.1562 1 × 10^3 nM/min and the “Vmax ± SD” value ([4]; inhibitor 3.9 μM) was 4.12 ± 0.2257 1 × 10^3 nM/min. The viability at 24 h, 12.5 µM ([5]; 12.5 μM, 24 h, MTT, read-out: Cell viability (% of control)) was 71%, the viability at 24 h, 25 µM ([5]; 25.0 μM, 24 h, MTT, read-out: Cell viability (% of control)) was 70% and the viability at 24 h, 50 µM ([5]; 50.0 μM, 24 h, MTT, read-out: Cell viability (% of control)) was 63%. For the same molecule, the viability at 24 h ([5]; up to 25 μM, read-out: cell viability) was at least 70%, the neurotoxicity [6] was “non-neurotoxic; also recorded: neurotoxicity in high concentrations” and the viability at 12.5 µM [7] was 68%.

In the case of CN(C)c1ccc(-c2cc3ccc(OCCN4CCCCC4)cc3oc2=O)cc1 [Compound 2], the IC50 [8] is listed as 6.37 µM.

In the case of Nc1c2c(nc3ccccc13)CCCC2 [tacrine], the cell viability [9] is listed as 97%.
